Data: US12202835B2, “Substituted aromatic ring-linked dioxinoquinazolines and dioxinoquinolines as kinase inhibitors” (BEIJING SCITECH-MQ PHARMACEUTICALS LIMITED, priority 2018, dated 2025)

Experiments:
VEGFR-2 kinase = VEGFR-2 kinase (Homo sapiens (Human), UniProt P35968); test: Assay of small molecular compounds for inhibiting the activity of VEGFR-2 kinase (LANCE TR-FRET); type: biochemical; conditions: read-out: VEGFR2 IC50
In short: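 LANCE TR-FRET with human VEGFR-2 (2× stock 0.5 nM) preincubated 30 min with compound (final 2500 to 0.042 nM, 11-point 3-fold), then ULight-JAK-1 (Tyr1023) peptide/ATP added (4× stocks 200 nM/40 μM). Reaction 60 min room temperature, 4% DMSO; IC50 from inhibition-rate curve.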

Ba/F3 LMNA-NTRK1 cells = test: Assay for inhibiting the proliferation of Ba/F3 LMNA-NTRK1 cells (CCK-8); type: cell-based; conditions: Mus musculus, BaF3
In short: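 Cells were seeded and cultured overnight, then treated with graded compound concentrations (final DMSO 0.25%) for 72 h. CCK-8 was added for 1–2 h at 37 °C and OD450 read. Survival was normalised to untreated and cell-free blank wells, and IC50 was fitted.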

MER kinase = MER kinase (Homo sapiens (Human), UniProt Q12866); test: Assay of small molecular compounds for inhibiting the activity of MER kinase (LANCE TR-FRET); type: biochemical
In short: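 MER kinase preincubated 5 min at RT with compound (11 points, 0.042-2500 nM final), then ULight-poly GT and ATP added (4× stocks 200 nM and 20 μM) for 60 min at RT, 1% DMSO. Phosphorylation detected by LANCE TR-FRET; IC50 from % inhibition versus controls.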

Chain of VEGFR-2 kinase (P35968 20-1356): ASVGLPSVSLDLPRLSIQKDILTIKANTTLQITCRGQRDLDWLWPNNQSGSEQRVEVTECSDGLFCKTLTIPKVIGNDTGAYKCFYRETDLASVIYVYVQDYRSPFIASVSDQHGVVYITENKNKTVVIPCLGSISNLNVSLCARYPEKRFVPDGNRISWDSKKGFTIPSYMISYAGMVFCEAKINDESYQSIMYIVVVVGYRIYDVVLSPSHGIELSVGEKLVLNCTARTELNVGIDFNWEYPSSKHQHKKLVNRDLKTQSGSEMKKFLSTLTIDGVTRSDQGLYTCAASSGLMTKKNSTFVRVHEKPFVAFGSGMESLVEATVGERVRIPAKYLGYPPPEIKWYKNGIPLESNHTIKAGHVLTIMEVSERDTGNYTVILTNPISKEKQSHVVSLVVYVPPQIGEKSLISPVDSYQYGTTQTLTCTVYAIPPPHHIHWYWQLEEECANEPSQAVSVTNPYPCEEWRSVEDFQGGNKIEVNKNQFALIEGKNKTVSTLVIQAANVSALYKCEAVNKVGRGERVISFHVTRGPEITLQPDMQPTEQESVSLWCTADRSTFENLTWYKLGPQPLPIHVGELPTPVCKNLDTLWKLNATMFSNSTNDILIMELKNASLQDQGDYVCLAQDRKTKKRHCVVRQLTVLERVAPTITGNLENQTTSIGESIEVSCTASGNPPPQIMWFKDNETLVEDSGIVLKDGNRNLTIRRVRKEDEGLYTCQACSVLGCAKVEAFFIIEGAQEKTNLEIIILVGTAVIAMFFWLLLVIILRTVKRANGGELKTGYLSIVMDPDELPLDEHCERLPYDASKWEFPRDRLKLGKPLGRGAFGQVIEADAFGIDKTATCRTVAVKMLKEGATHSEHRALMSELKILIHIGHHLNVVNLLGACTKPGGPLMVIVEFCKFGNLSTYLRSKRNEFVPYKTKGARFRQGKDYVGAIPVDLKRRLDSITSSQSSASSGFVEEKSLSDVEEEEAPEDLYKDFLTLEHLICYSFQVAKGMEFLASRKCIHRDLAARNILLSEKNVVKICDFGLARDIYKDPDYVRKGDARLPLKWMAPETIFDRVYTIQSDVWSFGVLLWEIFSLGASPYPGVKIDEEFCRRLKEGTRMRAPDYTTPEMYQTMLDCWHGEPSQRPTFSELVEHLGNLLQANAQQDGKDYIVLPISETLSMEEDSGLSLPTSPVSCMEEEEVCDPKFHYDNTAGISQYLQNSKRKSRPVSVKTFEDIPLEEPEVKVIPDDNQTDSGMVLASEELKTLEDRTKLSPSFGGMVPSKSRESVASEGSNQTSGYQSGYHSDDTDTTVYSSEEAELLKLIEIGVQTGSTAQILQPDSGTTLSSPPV
Chain of MER kinase (Q12866 21-999): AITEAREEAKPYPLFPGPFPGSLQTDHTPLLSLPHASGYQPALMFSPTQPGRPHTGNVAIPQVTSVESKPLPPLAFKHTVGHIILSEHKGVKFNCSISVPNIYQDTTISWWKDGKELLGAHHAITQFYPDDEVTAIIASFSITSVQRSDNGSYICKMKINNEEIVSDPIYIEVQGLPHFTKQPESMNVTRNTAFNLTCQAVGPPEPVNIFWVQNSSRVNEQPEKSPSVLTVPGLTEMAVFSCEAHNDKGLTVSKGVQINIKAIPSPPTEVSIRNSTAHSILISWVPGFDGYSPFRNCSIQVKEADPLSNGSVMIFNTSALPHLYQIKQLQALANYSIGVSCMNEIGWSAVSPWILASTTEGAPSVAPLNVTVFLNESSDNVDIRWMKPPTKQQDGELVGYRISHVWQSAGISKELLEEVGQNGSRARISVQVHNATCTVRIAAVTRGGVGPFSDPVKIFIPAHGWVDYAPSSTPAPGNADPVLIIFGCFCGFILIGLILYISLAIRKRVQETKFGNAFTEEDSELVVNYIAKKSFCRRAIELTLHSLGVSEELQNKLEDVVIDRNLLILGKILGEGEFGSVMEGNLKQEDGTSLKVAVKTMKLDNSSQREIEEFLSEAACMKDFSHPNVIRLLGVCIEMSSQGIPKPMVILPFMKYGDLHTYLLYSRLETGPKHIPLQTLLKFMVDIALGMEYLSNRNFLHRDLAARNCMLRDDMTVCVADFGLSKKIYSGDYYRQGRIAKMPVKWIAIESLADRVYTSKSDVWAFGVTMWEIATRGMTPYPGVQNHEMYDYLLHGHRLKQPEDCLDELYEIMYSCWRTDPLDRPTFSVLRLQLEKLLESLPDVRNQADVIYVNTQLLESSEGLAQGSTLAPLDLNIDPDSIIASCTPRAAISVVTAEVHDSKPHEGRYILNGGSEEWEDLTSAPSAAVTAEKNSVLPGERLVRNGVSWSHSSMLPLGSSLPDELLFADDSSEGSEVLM

## COCCCOc1cc2nccc(Oc3ccc(NC(=O)c4cn(C)c(=O)n(-c5ccc(F)cc5)c4=O)cc3F)c2c2c1OCCO2 [Example 80, N-(3-fluoro-4-((5-(3-methoxypropoxy)-2,3-dihydro-[1,4]dioxino[2,3-f]quinolin-10-yl)oxy)phenyl)-3-(4-fluorophenyl)-1-methyl-2,4-dioxo-1,2,3,4-tetrahydropyrimidine-5-carboxamide]
VEGFR-2 kinase
  IC50: 0.5 to 5 µM
Ba/F3 LMNA-NTRK1 cells
  IC50: < 0.05 µM
MER kinase
  IC50: ≤ 0.05 µM

## Cn1cc(C(=O)Nc2ccc(Oc3ccnc4cc(OC5CCOC5)c5c(c34)OCCO5)c(F)c2)c(=O)n(-c2ccc(F)cc2)c1=O (stereo not drawn) [Example 90, N-(3-fluoro-4-((5-((tetrahydrofuran-3-yl)oxy)-2,3-dihydro-[1,4]dioxino[2,3-f]quinolin-10-yl)oxy)phenyl)-3-(4-fluorophenyl)-1-methyl-2,4-dioxo-1,2,3,4-tetrahydropyrimidine-5-carboxamide]
VEGFR-2 kinase
  IC50: 0.05 to 0.5 µM
Ba/F3 LMNA-NTRK1 cells
  IC50: < 0.05 µM
MER kinase
  IC50: ≤ 0.05 µM

## Cn1cc(C(=O)Nc2ccc(Oc3ccnc4cc(OC5CCOCC5)c5c(c34)OCCO5)c(F)c2)c(=O)n(-c2ccc(F)cc2)c1=O [Example 91, N-(3-fluoro-4-((5-((tetrahydropyran-4-yl)oxy)-2,3-dihydro-[1,4]dioxino[2,3-f]quinolin-10-yl)oxy)phenyl)-3-(4-fluorophenyl)-1-methyl-2,4-dioxo-1,2,3,4-tetrahydropyrimidine-5-carboxamide]
VEGFR-2 kinase
  IC50: 0.05 to 0.5 µM
Ba/F3 LMNA-NTRK1 cells
  IC50: < 0.05 µM
MER kinase
  IC50: ≤ 0.05 µM

## CC(C)n1cc(C(=O)Nc2ccc(Oc3ccnc4cc(OCCCN5CCC(C)(C)CC5)c5c(c34)OCCO5)c(F)c2)c(=O)n(-c2ccc(F)cc2)c1=O [Example 92, N-(3-fluoro-4-((5-(3-(4,4-dimethylpiperidin-1-yl)propoxy)-2,3-dihydro-[1,4]dioxino[2,3-f]quinolin-10-yl)oxy)phenyl)-3-(4-fluorophenyl)-1-isopropyl-2,4-dioxo-1,2,3,4-tetrahydropyrimidine-5-carboxamide]
VEGFR-2 kinase
  IC50: 0.5 to 5 µM
Ba/F3 LMNA-NTRK1 cells
  IC50: 0.05 to 0.2 µM
MER kinase
  IC50: ≤ 0.05 µM

## CC(C)n1cc(C(=O)Nc2ccc(Oc3ccnc4cc(OCCCN5CCC(C)(N)CC5)c5c(c34)OCCO5)c(F)c2)c(=O)n(-c2ccc(F)cc2)c1=O [Example 93, N-(3-fluoro-4-((5-(3-(4-amino-4-methylpiperidin-1-yl)propoxy)-2,3-dihydro-[1,4]dioxino[2,3-f]quinolin-10-yl)oxy)phenyl)-3-(4-fluorophenyl)-1-isopropyl-2,4-dioxo-1,2,3,4-tetrahydropyrimidine-5-carboxamide]
VEGFR-2 kinase
  IC50: 0.05 to 0.5 µM
Ba/F3 LMNA-NTRK1 cells
  IC50: 0.2 to 1 µM
MER kinase
  IC50: ≤ 0.05 µM
